Results taken from patent US11377442B2, “Small molecule agonists and antagonists of NR2F6 activity” (ZANDER THERAPEUTICS, INC., priority 2016, dated 2022).
Where two headings read alike, the source gives them in different places.

Tests used:
Type in all cases: cell-based
[1] = target: T1, NR2F6 LBD (Homo sapiens, UniProt P10588); assay: NR2F6 LBD transient transfection; settings: LBD
T1 construct: expressed in transfected cells
T1 sequence (P10588 165-393 limits assumed): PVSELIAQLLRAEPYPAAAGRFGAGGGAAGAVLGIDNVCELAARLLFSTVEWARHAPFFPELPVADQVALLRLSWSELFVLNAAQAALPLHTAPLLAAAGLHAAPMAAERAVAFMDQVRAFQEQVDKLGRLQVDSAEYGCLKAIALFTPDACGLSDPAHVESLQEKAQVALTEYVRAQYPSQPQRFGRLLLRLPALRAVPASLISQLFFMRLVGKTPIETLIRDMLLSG
Protocol: FIGS. 27A and 27B show NR2F6 and LBD transient transfection, respectively, for Compound D28. Higher concentrations were excluded due to lower signal (tox effect). FIGS. 27C and 27D show NR2F6 and LBD transient transfection at different concentrations for different compounds. 9 compounds were tested on LBD transfected cells (40, 10, 2 and 0.5 μM, 4 replicates). FIGS. 27E and 27F show toxicity of Compound D28. 9 compounds were tested for cytotoxicity on LBD transfected cells (40, 10, 2 and 0.5 μM, 4 replicates). […] Cytotoxicity normalized to DMSO is shown in FIG. 27F (0% cytotoxicity corresponds to DMSO signal, 100%—zero signal).
FIGS. 34A and 34B show NR2F6 LBD transient transfection for Compound E21. 9 compounds were tested on LBD transfected cells (40, 10, 2 and 0.5 μM, 4 replicates). FIGS. 34C and 34D show NR2F6 and LBD transient transfection at different concentrations for different compounds. 9 compounds were tested on LBD transfected cells (40, 10, 2 and 0.5 μM, 4 replicates). […] Cytotoxicity normalized to DMSO is shown in FIG. 34D (0% cytotoxicity corresponds to DMSO signal, 100%—zero signal). All compounds were tested at 5, 10, 25 and 50 uM in duplicates. Dog PBMC (1×10^6 cells/mL) were activated by 10 ng/mL PMA+500 ng/mL ionomycin. Data were normalized to controls with (100%)/without (0%) PMA+ionomycin activation.
FIGS. 39A and 39B show NR2F6 LBD transient transfection for Compound F1. 9 compounds were tested on LBD transfected cells (40, 10, 2 and 0.5 μM, 4 replicates). FIGS. 39C and 39D show toxicity of NR2F6 LBD transient transfection. 9 compounds were tested for cytotoxicity on LBD transfected cells (40, 10, 2 and 0.5 μM, 4 replicates). Tox effect causes lower signal compared to DMSO. Cytotoxicity normalized to DMSO is shown in FIG. 39D (0% cytotoxicity corresponds to DMSO signal, 100%—zero signal).

[2] = target: T2, NR2F6 (Homo sapiens, UniProt P10588); assay: NR2F6 agonist screening, Firefly signal cmpd/DMSO
T2 construct: expressed in transfected cells; also transient transfection
T2 sequence (P10588 1-404): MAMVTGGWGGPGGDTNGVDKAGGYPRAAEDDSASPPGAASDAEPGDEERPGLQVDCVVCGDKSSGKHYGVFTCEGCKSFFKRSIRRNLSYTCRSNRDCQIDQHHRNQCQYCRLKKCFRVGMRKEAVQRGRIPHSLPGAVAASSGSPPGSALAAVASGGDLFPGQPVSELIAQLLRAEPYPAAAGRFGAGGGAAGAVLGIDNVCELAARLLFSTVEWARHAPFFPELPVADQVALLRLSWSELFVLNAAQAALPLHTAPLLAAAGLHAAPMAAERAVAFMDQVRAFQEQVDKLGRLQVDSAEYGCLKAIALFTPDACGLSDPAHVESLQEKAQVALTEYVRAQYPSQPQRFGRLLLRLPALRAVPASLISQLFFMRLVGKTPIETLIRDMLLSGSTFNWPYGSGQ

[3] = system: HEK293 pGL4; assay: Firefly_pGL signal, cmpd/DMSO (pGL4 control cells); settings: Homo sapiens
[4] = system: Renilla; assay: Renilla signal in NR2F6 agonist screening, cmpd/DMSO; settings: Renilla, F4
[5] = HEK293, 0.5 uM, pGL4, read-out: Firefly pGL4, cmpd/DMSO (mean)
[6] = HEK293, 2 uM, pGL4, read-out: Firefly pGL4, cmpd/DMSO (mean)
[7] = HEK293, 10 uM, pGL4, read-out: Firefly pGL4, cmpd/DMSO (mean)
[8] = HEK293, 40 uM, pGL4, read-out: Firefly pGL4, cmpd/DMSO (mean)
[9] = HEK293, pGL4, 1% FBS, 0.5 uM, read-out: Firefly, pGL4, 1% FBS, cmpd/DMSO (mean)
[10] = HEK293, pGL4, 1% FBS, 2 uM, read-out: Firefly, pGL4, 1% FBS, cmpd/DMSO (mean)
[11] = HEK293, pGL4, 1% FBS, 10 uM, read-out: Firefly, pGL4, 1% FBS, cmpd/DMSO (mean)
[12] = HEK293, pGL4, 1% FBS, 40 uM, read-out: Firefly, pGL4, 1% FBS, cmpd/DMSO (mean)
[13] = HEK293, pGL4, 10% FBS, 0.5 uM, read-out: Firefly, pGL4, 10% FBS, cmpd/DMSO (mean)
[14] = HEK293, pGL4, 10% FBS, 2 uM, read-out: Firefly, pGL4, 10% FBS, cmpd/DMSO (mean)
[15] = HEK293, pGL4, 10% FBS, 10 uM, read-out: Firefly, pGL4, 10% FBS, cmpd/DMSO (mean)
[16] = HEK293, pGL4, 10% FBS, 40 uM, read-out: Firefly, pGL4, 10% FBS, cmpd/DMSO (mean)
[17] = read-out: Renilla, F4, cmpd/DMSO (mean)
[18] = 1% FBS, read-out: Renilla, F4, 1% FBS, cmpd/DMSO (mean)
[19] = 10% FBS, read-out: Renilla, F4, 10% FBS, cmpd/DMSO (mean)

## CCCCN[C@H]1CS(=O)(=O)C[C@@H]1S(=O)(=O)c1ccc(Cl)cc1 [Compound D119]
[1]; 0.5 uM
  Firefly LBD, cmpd/DMSO (mean): 1.0
[1]; 2 uM
  Firefly LBD, cmpd/DMSO (mean): 1.5
[1]; 10 uM
  Firefly LBD, cmpd/DMSO (mean): 3.4
[1]; 40 uM
  Firefly LBD, cmpd/DMSO (mean): 0.5
[2]; 0.5 uM
  Firefly F4, cmpd/DMSO (mean): 0.9
[2]; 2 uM
  Firefly F4, cmpd/DMSO (mean): 2.0
[2]; 10 uM
  Firefly F4, cmpd/DMSO (mean): 5.3
[2]; 40 uM
  Firefly F4, cmpd/DMSO (mean): 0.6
[2]; 1% FBS, 10 uM
  F4, Firefly/Renilla for S/B(F4) > 3: 2.5
  Firefly, F4/pGL4 for S/B(F4) > 3: 1.9
  Firefly, F4, 1% FBS, cmpd/DMSO (mean): 4.4
[2]; 10% FBS, 10 uM
  F4, Firefly/Renilla for S/B(F4) > 3: 2.7
  Firefly, F4/pGL4 for S/B(F4) > 3: 3.3
  Firefly, F4, 10% FBS, cmpd/DMSO (mean): 7.3
[2]; 1% FBS, 0.5 uM
  Firefly, F4, 1% FBS, cmpd/DMSO (mean): 1.5
[2]; 1% FBS, 2 uM
  Firefly, F4, 1% FBS, cmpd/DMSO (mean): 1.8
[2]; 1% FBS, 40 uM
  Firefly, F4, 1% FBS, cmpd/DMSO (mean): 0.2
[2]; 10% FBS, 0.5 uM
  Firefly, F4, 10% FBS, cmpd/DMSO (mean): 1.5
[2]; 10% FBS, 2 uM
  Firefly, F4, 10% FBS, cmpd/DMSO (mean): 1.1
[2]; 10% FBS, 40 uM
  Firefly, F4, 10% FBS, cmpd/DMSO (mean): 1.6
[3]; [5]
  fold induction at 0.5 µM: 1.1
[3]; [6]
  fold induction at 2 µM: 1.5
[3]; [7]
  fold induction at 10 µM: 3.9
[3]; [8]
  fold induction at 40 µM: 0.6
[3]; [9]
  fold induction at 0.5 µM: 1.2
[3]; [10]
  fold induction at 2 µM: 1.4
[3]; [11]
  fold induction at 10 µM: 2.4
[3]; [12]
  fold induction at 40 µM: 0.7
[3]; [13]
  fold induction at 0.5 µM: 1.1
[3]; [14]
  fold induction at 2 µM: 1.2
[3]; [15]
  fold induction at 10 µM: 2.2
[3]; [16]
  fold induction at 40 µM: 0.5
[4]; [17]
  fold induction at 0.5 µM: 1.2
  fold induction at 2 µM: 1.2
  fold induction at 10 µM: 1.6
  fold induction at 40 µM: 0.2
[4]; [18]
  fold induction at 0.5 µM: 1.1
  fold induction at 2 µM: 1.1
  fold induction at 10 µM: 1.8
  fold induction at 40 µM: 0.4
[4]; [19]
  fold induction at 0.5 µM: 1.4
  fold induction at 2 µM: 1.5
  fold induction at 10 µM: 2.7
  fold induction at 40 µM: 1.3

## COCCCN[C@H]1CS(=O)(=O)C[C@@H]1S(=O)(=O)c1ccc(Cl)cc1 [Compound D126]
[1]; 0.5 uM
  Firefly LBD, cmpd/DMSO (mean): 1.6
[1]; 2 uM
  Firefly LBD, cmpd/DMSO (mean): 1.5
[1]; 10 uM
  Firefly LBD, cmpd/DMSO (mean): 2.9
[1]; 40 uM
  Firefly LBD, cmpd/DMSO (mean): 2.1
[2]; 0.5 uM
  Firefly F4, cmpd/DMSO (mean): 1.0
[2]; 2 uM
  Firefly F4, cmpd/DMSO (mean): 1.8
[2]; 10 uM
  Firefly F4, cmpd/DMSO (mean): 4.5
[2]; 40 uM
  Firefly F4, cmpd/DMSO (mean): 2.3
[2]; 1% FBS, 10 uM
  F4, Firefly/Renilla for S/B(F4) > 3: 2.0
  Firefly, F4/pGL4 for S/B(F4) > 3: 1.6
  Firefly, F4, 1% FBS, cmpd/DMSO (mean): 3.1
[2]; 10% FBS, 40 uM
  F4, Firefly/Renilla for S/B(F4) > 3: 3.0
  Firefly, F4/pGL4 for S/B(F4) > 3: 2.1
  Firefly, F4, 10% FBS, cmpd/DMSO (mean): 8.3
[2]; 1% FBS, 0.5 uM
  Firefly, F4, 1% FBS, cmpd/DMSO (mean): 0.7
[2]; 1% FBS, 2 uM
  Firefly, F4, 1% FBS, cmpd/DMSO (mean): 1.5
[2]; 1% FBS, 40 uM
  Firefly, F4, 1% FBS, cmpd/DMSO (mean): 0.6
[2]; 10% FBS, 0.5 uM
  Firefly, F4, 10% FBS, cmpd/DMSO (mean): 1.4
[2]; 10% FBS, 2 uM
  Firefly, F4, 10% FBS, cmpd/DMSO (mean): 1.0
[2]; 10% FBS, 10 uM
  Firefly, F4, 10% FBS, cmpd/DMSO (mean): 2.9
[3]; [5]
  fold induction at 0.5 µM: 1.2
[3]; [6]
  fold induction at 2 µM: 1.2
[3]; [7]
  fold induction at 10 µM: 3
[3]; [8]
  fold induction at 40 µM: 0.8
[3]; [9]
  fold induction at 0.5 µM: 1.4
[3]; [10]
  fold induction at 2 µM: 1.8
[3]; [11]
  fold induction at 10 µM: 2
[3]; [12]
  fold induction at 40 µM: 1.6
[3]; [13]
  fold induction at 0.5 µM: 1.1
[3]; [14]
  fold induction at 2 µM: 1.1
[3]; [15]
  fold induction at 10 µM: 1.8
[3]; [16]
  fold induction at 40 µM: 3.9
[4]; [17]
  fold induction at 0.5 µM: 1.1
  fold induction at 2 µM: 1.2
  fold induction at 10 µM: 1.6
  fold induction at 40 µM: 1.6
[4]; [18]
  fold induction at 0.5 µM: 1.2
  fold induction at 2 µM: 1.2
  fold induction at 10 µM: 1.5
  fold induction at 40 µM: 1.8
[4]; [19]
  fold induction at 0.5 µM: 1
  fold induction at 2 µM: 1.1
  fold induction at 10 µM: 1.7
  fold induction at 40 µM: 2.8
